In PubChem BioAssay (NCI) one finds TGI and GI50 data, which are given here for 16 molecules.

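Compound exposure: 48 hours, 5 concentrations, 96-well plates. GI50 = concentration required for 50% inhibition of growth. TGI marks complete inhibition of growth.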

Test systems include SF-295 CNS; K-562 leukemia; SF-539 CNS; MCF7 breast; SN12C renal; NCI-H522 lung; MDA-MB-435; CCRF-CEM leukemia.
Holding throughout (assay): inhibition of tumour cell growth, NCI panel, 48 h

Regarding `O=c1oc2ccccc2cc1/C=N/N1C(=S)N(c2ccccc2)C(=Nc2ccccc2)C1=Nc1ccccc1`, the TGI in the assay with SF-295 CNS, in the assay with K-562 leukemia, in the assay on SF-539 CNS, in the assay on MCF7 breast, in the assay with SN12C renal and in the assay with NCI-H522 lung was greater than 100 µM each time. This molecule gave a TGI in the assay on MDA-MB-435 greater than 100 µM.
Turning to `O=C(CN1CCNCCN(CC(=O)N2CCCCC2)CCNCC1)N1CCCCC1`, the TGI with CCRF-CEM leukemia, in the assay with SF-295 CNS, in the assay on K-562 leukemia, in the assay on SF-539 CNS, in the assay with MCF7 breast and in the assay with SN12C renal was greater than 100 µM in each case. Besides, the TGI in the assay on NCI-H522 lung and in the assay with MDA-MB-435 was greater than 100 µM each time.
For the molecule `Cc1cc(C)c(C2=NOC(c3ccccc3)(c3cc(=O)n(-c4ccccc4)s3)O2)c(C)c1` (stereo not given), the TGI in the assay with CCRF-CEM leukemia was greater than 100 µM; in the assay on SF-295 CNS, greater than 100 µM; in the assay with K-562 leukemia, greater than 100 µM; with MCF7 breast, 37.2 µM; in the assay with SN12C renal, greater than 100 µM; in the assay on NCI-H522 lung it was 35.8 µM. The molecule also registered a TGI in the assay with MDA-MB-435 greater than 100 µM.
`C[C@@H]1CC[C@H]2C(COCCOCC3=C(C(F)(F)F)O[C@@H]4O[C@@]5(C)CC[C@H]6[C@H](C)CC[C@@H]3[C@@]46OO5)=C(C(F)(F)F)O[C@@H]3O[C@@]4(C)CC[C@@H]1[C@]32OO4`: the GI50 was less than 0.0209 µM in the assay with CCRF-CEM leukemia; less than 0.0241 µM in the assay on K-562 leukemia; 0.0264 µM in the assay with SF-539 CNS; 0.0322 µM with MCF7 breast; less than 0.0448 µM in the assay on SN12C renal; 2.9 µM in the assay on NCI-H522 lung. Further, the GI50 in the assay with MDA-MB-435 is 0.0426 µM. Moreover, the TGI was greater than 100 µM in the assay on CCRF-CEM leukemia; greater than 100 µM with K-562 leukemia; greater than 69.8 µM in the assay on SF-539 CNS; greater than 100 µM in the assay with MCF7 breast; greater than 100 µM with SN12C renal; greater than 100 µM in the assay on NCI-H522 lung. Moreover, the TGI in the assay with MDA-MB-435 was greater than 100 µM.
Regarding `CN(/N=C(\C(=O)O)c1ccccc1)C1=NCCCN1`, the TGI in the assay with CCRF-CEM leukemia, in the assay on SF-295 CNS, in the assay on K-562 leukemia, with SF-539 CNS, in the assay with MCF7 breast and in the assay on SN12C renal was greater than 100 µM in each case. The TGI in the assay with NCI-H522 lung and in the assay on MDA-MB-435 was greater than 100 µM in each case.
Take `COc1nc2c(c(=O)n1C)N(C(C)=O)C1C(N2)OCC(OC(C)=O)C1OC(C)=O` (stereo not given): the TGI in the assay on CCRF-CEM leukemia, in the assay on SF-295 CNS, in the assay on K-562 leukemia, in the assay on SF-539 CNS, in the assay on MCF7 breast and with SN12C renal was greater than 10 µM each time. For the same molecule, the TGI with NCI-H522 lung and in the assay on MDA-MB-435 was greater than 10 µM each time.
As to `CC(=O)Nc1ccccc1SCCSSCCSc1ccccc1NC(C)=O`, the TGI is 70.4 µM in the assay with CCRF-CEM leukemia; 73.7 µM with SF-295 CNS; greater than 100 µM in the assay on K-562 leukemia; 52.1 µM in the assay on SF-539 CNS; greater than 100 µM in the assay with MCF7 breast; greater than 100 µM in the assay on SN12C renal. In addition, the results for the TGI in the assay on NCI-H522 lung and in the assay with MDA-MB-435 were 34.3 µM and 41.1 µM, respectively.
`Cc1ccc(-c2nc3ccc(Cl)cc3[nH]2)cc1`: the TGI with CCRF-CEM leukemia, in the assay on SF-295 CNS, with K-562 leukemia, in the assay with SF-539 CNS, in the assay with MCF7 breast and in the assay with SN12C renal was greater than 100 µM in each case. Moreover, the TGI with NCI-H522 lung and in the assay with MDA-MB-435 was greater than 100 µM throughout.
For `CCCC(=O)NC1=C(NCC)C(=O)c2ccccc2C1=O`, the TGI in the assay with CCRF-CEM leukemia, with SF-295 CNS, with K-562 leukemia, in the assay on SF-539 CNS, with MCF7 breast and with SN12C renal was greater than 100 µM each time. Moreover, the TGI in the assay on NCI-H522 lung was greater than 100 µM; in the assay with MDA-MB-435 it was 78.1 µM.
On to `C/C(=N\Nc1nc2ccccc2s1)c1ncccn1`, for which the TGI was greater than 100 µM with CCRF-CEM leukemia; 3.78 µM in the assay on SF-295 CNS; greater than 100 µM in the assay on K-562 leukemia; 20 µM in the assay with SF-539 CNS; greater than 100 µM in the assay on MCF7 breast; 25.2 µM in the assay with SN12C renal. For the same molecule, the values for the TGI with NCI-H522 lung and in the assay with MDA-MB-435 were 16.5 µM and greater than 100 µM, respectively.
For the molecule `CN(C)CCNC(=O)c1cccc2c(NCC(=O)O)c3ccccc3nc12`, the TGI is greater than 100 µM with CCRF-CEM leukemia; 29.8 µM in the assay on SF-295 CNS; greater than 100 µM with K-562 leukemia; 27.8 µM in the assay with MCF7 breast; greater than 100 µM in the assay with SN12C renal; 35.3 µM in the assay on NCI-H522 lung. This molecule showed a TGI with MDA-MB-435 of 32.9 µM.
In the case of `COc1ccccc1NC(=O)/C(Cc1nc2ccc([N+](=O)[O-])cc2[nH]c1=O)=N\NC(=O)C[N+](C)(C)C`, the TGI in the assay on CCRF-CEM leukemia is 94.5 µM; in the assay with SF-295 CNS, greater than 100 µM; in the assay on SF-539 CNS, greater than 100 µM; with MCF7 breast it was greater than 100 µM; in the assay on SN12C renal, greater than 100 µM; with NCI-H522 lung, greater than 100 µM. In the assay with MDA-MB-435, the TGI is greater than 100 µM.
With `O=C(NCc1cccnc1)NCc1cccnc1`, the TGI in the assay on SF-295 CNS, with K-562 leukemia, in the assay on SF-539 CNS, in the assay on MCF7 breast, with SN12C renal and in the assay on NCI-H522 lung was greater than 100 µM throughout. The molecule further gave a TGI in the assay with MDA-MB-435 greater than 100 µM.
Regarding `O=c1cc(-c2cccc(Cl)c2)[nH]c2ncccc12`, the TGI was greater than 100 µM in the assay with CCRF-CEM leukemia; 0.438 µM in the assay with SF-295 CNS; 0.374 µM with SF-539 CNS; greater than 100 µM in the assay with MCF7 breast; 30.5 µM in the assay on SN12C renal; 0.914 µM with NCI-H522 lung. The molecule further had a TGI with MDA-MB-435 of 0.0382 µM.
Regarding `Fc1ccc2nc3n(c2c1)C(c1c(F)cccc1F)SC3` (stereo not given), the TGI in the assay on SF-295 CNS, in the assay with SF-539 CNS, in the assay with MCF7 breast, with SN12C renal, with NCI-H522 lung and in the assay on MDA-MB-435 was greater than 100 µM in each case.
On to `Cc1n[nH]c(=O)c2cc(-c3ccccc3)[nH]c12`, for which the TGI in the assay with CCRF-CEM leukemia, with SF-295 CNS, in the assay with K-562 leukemia, in the assay with SF-539 CNS, with MCF7 breast and in the assay with SN12C renal was greater than 100 µM throughout. In the assay on MDA-MB-435, this molecule showed a TGI greater than 100 µM.
